Laboratory results reported in patent publication US7642369B2, “Epoxyketone-based immunoproteasome inhibitors” (University of Kentucky Research Foundation, priority 2006, dated 2010).
Entries after “also recorded” stand apart in the source; their conditions may differ. Like-named read-outs stand apart in the source and are kept apart here.

Tests used:
[1] = tested on: proteasome subunits LMP7/X and LMP2; assay: Competition screening assay in EL4 cells with biotin-dihydroeponemycin probe, streptavidin-HRP western blot; format: binding, Murine; conditions: for Proteasome subunit binding and specificity, competition against biotin-dihydroeponemycin labelling: EL4 cells, 30 min pre-incubation, 1 hr probe, western blot
Procedure: (§1) Med. Chem. Lett. 9, 3335-3340 (1999) (herein incorporated by reference); and “Towards Immunoproteasome-Specific Inhibitors: An Improved Synthesis of Dihydroeponemycin.” Specifically, various concentrations of these compounds were pre-incubated in EL4 cells at 37° C. for 30 min. […] After cells were lysed, whole cell lysates were analyzed using 12% SDS-PAGE and transferred to PVDF membranes. Biotinylated proteins were then visualized using streptavidin-horseradish peroxidase (HRP) and enhanced chemiluminescence (ECL).
(§2) The western blots were performed using EL4 cells pre-incubated with proteasome inhibitors for 30 min before treating with biotinylated compounds. After 1 hr incubation, cells were lysed, and analyzed by western blot using streptavidin-HRP and ECL.
Similar competition assays were performed to screen for immunoproteasome inhibitors in a EL4 cell model system. EL4 cell system was chosen since these cells highly express catalytic subunits of both the constitutive and immunoproteasomes.
(§3) Cell Culture and Screening Assay: Murine lymphoma EL4 (ATCC) cells were grown in RPMI medium (Gibco), 10% fetal bovine serum and 1% penicillin and streptomycin at […] in a 5% CO2 incubator. […] The cells were then incubated for an additional 1 hour. Cell lysates were analyzed by 12% SDS-PAGE and transferred to PVDF membrane. Proteins that were covalently modified by biotinylated compounds were visualized by enhanced chemiluminescence using streptavidin conjugated horseradish peroxidase (Sigma-Aldrich) or anti-LMP2 (Affinity BioReagents) and Biomax X-ray film (Kodak).

20S immunoproteasome = assay: Enzyme kinetics: inhibition of chymotrypsin-like activity of purified 20S immunoproteasome, fluorogenic substrate Suc-Leu-Leu-Val-Tyr-AMC; format: biochemical, bovine; conditions: for Kobs/[I], 20S immunoproteasome: purified 20S immunoproteasome; for Relative selectivity: immunoproteasome/regular proteasome, normalized against epoxomicin
Procedure: (§4) Since LMP2 is a major catalytic subunit responsible for chymotrypsin-like activity, inactivation of the LMP2 subunit inhibits proteolytic activity of immunoproteasome. […] Enzyme kinetics experiments were also carried out with the purified 20S constitutive proteasome as control.
(§5) Enzyme kinetics were performed by measuring the chymotrypsin-like activity of 20S immunoproteasome and regular proteasome in the presence of compound 15 using a fluorogenic peptide substrate.
(§6) Enzyme Kinetic Studies: kassociation values were determined as follows. Inhibitors were mixed with a fluorogenic peptide substrate and assay buffer [20 mM Tris (pH 8.0), 0.5 mM EDTA, and 0.035% SDS] in a 96-well plate. The chymotrypsin-like activity was assayed using the fluorogenic peptide substrates Suc-Leu-Leu-Val-Tyr-AMC (Sigma-Aldrich). Hydrolysiswas initiated by the addition of bovine 20S proteasome or immunoproteasome (Biomol International), and the reaction was followed by fluorescence (360-nm excitation/460-nm detection) using a Microplate Fluorescence Reader (FL600; Bio-Tek Instruments, Inc., Winnoski, Vt.) employing the software KC4 v.2.5 (Bio-Tek Instruments, Inc., Winooski, Vt.). Reactions were allowed to proceed for 60-90 min, and fluorescence data were collected every 1 min. Fluorescence was quantified as arbitrary units and progression curves were plotted for each reaction as a function of time. kobserved/[I] values were obtained using PRISM program by nonlinear least squares fit of the data to the following equation: fluorescence=vst+[(v0−vs)/kobserved][1−exp(−kobserved t)], where v0 and vs are the initial and final velocities, respectively, and kobserved is the reaction rate constant. […] Reactions were performed using inhibitor concentrations that were <100-fold of those of the proteasome assayed.

20S regular proteasome = target: T1, 20S regular proteasome (Bos taurus, UniProt Q2TBX6+Q32KL2); assay: Enzyme kinetics: inhibition of chymotrypsin-like activity of purified 20S constitutive (regular) proteasome, fluorogenic substrate Suc-Leu-Leu-Val-Tyr-AMC; format: biochemical, bovine; conditions: for kinact/KI: read-out: Kobs/[I], 20S regular proteasome
T1 construct: purchased Biomol International
Procedure: as §4, §5, §6

PC3 (Prostate) = assay: Cell proliferation assay by counting cell numbers after 24 h incubation; format: cell-based; conditions: cell number after 24 h incubation
Procedure: (§7) To compare the efficacy of the present LMP2 inhibitor compounds and, in particular, LMP2 inhibitor 15, as compared to prior known inhibitors, comparative tests were conducted using compound 21 in expressing tumor cells. LMP2 inhibitor compound 21 blocked proliferation of lung cancer H460, prostate cancer cells PC3 and multiple myeloma cells RPMI8226, as summarized in Table 2, below.

RPMI8226 (MM) = assay: as above; format: cell-based; conditions: cell number after 24 h incubation
Procedure: as §7

H460 (Lung) = assay: as above; format: cell-based; conditions: cell number after 24 h incubation
Procedure: as §7

[2] = tested on: proteasome subunits Z, MECL1, LMP7 and X; assay: Competition screening assay in EL4 cells with biotin-epoxomicin probe, streptavidin-HRP western blot; format: binding, Murine; conditions: 30 min pre-incubation, 1 hr probe
Procedure: as §1, §2
Preincubation of EL4 cells with 1 μM of compound 15 (one equivalent of assay probe) was sufficient to selectively modify the catalytic threonine residue of LMP2 subunit, thereby preventing further modification of LMP2 subunit by biotin-dihydroeponemycin, resulting in selective attenuation of LMP2 protein band on western blot.
Cell Culture and Screening Assay: Murine lymphoma EL4 (ATCC) cells were grown in RPMI medium (Gibco), 10% fetal bovine serum and 1% penicillin and streptomycin at […] in a 5% CO2 incubator. […] Cell lysates were analyzed by 12% SDS-PAGE and transferred to PVDF membrane. […]

WI-38 (Fibroblast) = assay: Cell proliferation assay by counting cell numbers after 24 h incubation; format: cell-based; conditions: cell number after 24 h incubation
LMP2 subunit = target: T2, LMP2 subunit (Mus musculus, UniProt O35955+P28076); assay: LMP2 mobility shift in EL4 cells, western blot with anti-LMP2 antibody; format: binding, Murine; conditions: 1 hr at 37° C.; for Covalent modification of LMP2, mobility shift of adduct on SDS PAGE: anti-LMP2 western blot
T2 construct: sufficient to modify LMP2 subunits present in cells; endogenous in cells; host or cells: EL4 murine lymphoma cells (ATCC)
Procedure: The mobility shift of LMP2:15 adduct was investigated to further verify that compound 15 covalently modifies the LMP2 subunit (FIG. 5). After EL4 cells were incubated with compound 15 or assay probes (Biotin-EPX and Biotin-EPN) for 1 hr at 37° C., cells were lysed and boiled for 15 min. Whole cell proteins were then analyzed by western blot using anti-LMP2 antibody.
Since molecular weights of the LMP2 subunit are increased by 828.08 (for biotin-epoxomicin) and 1078.45 (for biotin-dihydroeponemycin), assay probe-LMP2 adducts are expected to show a slower mobility as compared to free LMP2 (lanes 1-3, FIG. 5). […] It can be explained by a smaller molecular weight of compound 15 (484.76) compared to assay probes (828.08 and 1078.45). […] LMP2 inhibitor efficiently blocks the proteolytic activity of immunoproteasome with high specificity. Screening assay and mobility shift studies have shown that compound 15 selectively inactivates the LMP2 subunit via covalent modification. Since LMP2 is a major catalytic subunit responsible for chymotrypsin-like activity, inactivation of the LMP2 subunit inhibits proteolytic activity of immunoproteasome. Confirmation of this is provided by enzyme kinetics studies performed using purified 20S immunoproteasome. Enzyme kinetics experiments were also carried out with the purified 20S constitutive proteasome as control.
as §3

How did the “Proteasome subunit binding and specificity, competition against biotin-dihydroeponemycin labelling” value [1] turn out when CCCCCCC(=O)N[C@@H](CO)C(=O)N[C@@H](CC(C)C)C(=O)[C@@]1(COCOCCOC)CO1 [Compound 12] was run?
Its value is “selectively targeting the immunoproteasome subunit LMP2; also recorded: high specificity towards LMP2 was achieved”.

Which “Proteasome subunit binding and specificity, competition against biotin-dihydroeponemycin labelling” value [1] does the source give for CCCCCCC(=O)N[C@@H](C)C(=O)N[C@@H](CC(C)C)C(=O)[C@@]1(CO)CO1 [Compound 9] here?
Its value is “LMP7/X and LMP2 protein bands are competed away”.

With CC(C)CCCCC(=O)N[C@@H](CO)C(=O)N[C@@H](CC(C)C)C(=O)[C@@]1(CO)CO1 [Dihydroeponemycin, dihydroeponemycin, reference compound] as the molecule, how does the “Kobs/[I], 20S immunoproteasome” value (20S immunoproteasome; chymotrypsin-like activity) read?
Its value is 251 ± 121 M^−1S^−1.

What about the Relative selectivity (20S immunoproteasome) of the same molecule?
The Relative selectivity was 5.

What about the kinact/KI (20S regular proteasome; chymotrypsin-like activity, purified 20S constitutive proteasome) of the same molecule?
The kinact/KI was 721 ± 84 M⁻¹ s⁻¹.

What about the “Proteasome subunit binding and specificity, competition against biotin-dihydroeponemycin labelling” value [1] of the same molecule?
The value was “LMP7/X and LMP2 protein bands are competed away; also recorded: do not have specificity towards subunits of either the constitutive or immunoproteasomes”.

How did the “Proteasome subunit binding and specificity, competition against biotin-dihydroeponemycin labelling” value [1] turn out when CCCCCCC(=O)N[C@@H](CO)C(=O)N[C@@H](CC(C)C)C(=O)[C@@]1(COCOC)CO1 [Compound 11] was run?
Its value is “do not selectively target proteasome subunits; also recorded: dramatic loss in the potency and specificity compared to dihydroeponemycin”.

For CC[C@H](C)[C@H](NC(=O)[C@H]([C@@H](C)CC)N(C)C(C)=O)C(=O)N[C@H](C(=O)N[C@@H](CC(C)C)C(=O)[C@@]1(C)CO1)[C@@H](C)O [Epoxomicin, epoxomicin], which “Kobs/[I], 20S immunoproteasome” value (20S immunoproteasome; chymotrypsin-like activity) is on record?
The value was 3,044 ± 1,423 M^−1S^−1.

And the IC50 (PC3 (Prostate))?
The IC50 was 10 nM.

What about the IC50 (RPMI8226 (MM)) of the same molecule?
The IC50 was 100 nM.

What about the IC50 (H460 (Lung)) of the same molecule?
The IC50 was 100 nM.

And the “Proteasome subunit binding, competition against biotin-epoxomicin labelling” value [2]?
Its value is “proteasome subunit (Z, MECL1, LMP7 and X) bands are efficiently competed away”.

And the “Proteasome subunit binding, competition against biotin-epoxomicin labelling” value ([2]; listed as epoximicin)?
Its value is “do not have specificity towards subunits of either the constitutive or immunoproteasomes”.

What about the IC50 (WI-38 (Fibroblast)) of the same molecule?
Its IC50 is 28 nM.

With CCCCCCC(=O)N[C@@H](C)C(=O)N[C@@H](CC(C)C)C(=O)[C@@]1(CO[Si](C)(C)C(C)(C)C)CO1 [Compound 15] as the molecule, how does the “Kobs/[I], 20S immunoproteasome” value (20S immunoproteasome; chymotrypsin-like activity) read?
Its value is 83 ± 27 M^−1S^−1.

What about the “higher selectivity toward the 20S immunoproteasome in comparison to dihydroeponemycin” value (20S immunoproteasome; chymotrypsin-like activity, versus dihydroeponemycin) of the same molecule?
Its value is 5 fold.

And the “higher selectivity toward the 20S immunoproteasome in comparison to epoxomicin” value (20S immunoproteasome; chymotrypsin-like activity, versus epoxomicin)?
The value was 24 fold.

And the “Inhibition of chymotrypsin-like activity of 20S immunoproteasome (in words)” value (20S immunoproteasome; fluorogenic peptide substrate)?
Its value is “displayed a better inhibitory activity against the immunoproteasome; also recorded: time- and concentration-dependent inhibition”.

And the Relative selectivity (20S immunoproteasome)?
The Relative selectivity was 24.

What about the “Inhibition of chymotrypsin-like activity of 20S regular proteasome (in words)” value (20S regular proteasome; fluorogenic peptide substrate) of the same molecule?
Its value is “poorly inhibited the chymotrypsin-like activity of 20S regular proteasome”.

And the kinact/KI (20S regular proteasome)?
Its kinact/KI is 49 ± 18 M⁻¹ s⁻¹.

What about the “Covalent modification of LMP2, mobility shift of adduct on SDS PAGE” value (LMP2 subunit) of the same molecule?
Its value is “covalently modify the immunoproteasome subunit LMP2”.

What about the “Covalent modification of LMP2, mobility shift of adduct on SDS PAGE” value (LMP2 subunit; listed as compound 15) of the same molecule?
The value was “slower mobility for the LMP2-15 adduct on SDS PAGE was clearly shown as compared to free LMP2”.

And the “Concentration sufficient to modify LMP2 subunits present in cells” value (LMP2 subunit; mobility shift)?
Its value is 1 µM.

What about the “Concentration sufficient to selectively modify the catalytic threonine residue of LMP2 subunit” value ([1]; EL4 cells preincubated, one equivalent of assay probe (biotin-dihydroeponemycin)) of the same molecule?
The value was 1 µM.

And the “Proteasome subunit binding and specificity, competition against biotin-dihydroeponemycin labelling” value [1]?
The value was “selectively targeting the immunoproteasome subunit LMP2; also recorded: even higher specificity towards the LMP2 subunit was obtained”.
